The assay addresses CDK2 (UniProt P24941). Nature of the assay: Enzyme Assay.
One may read the IC50 as the concentration at which inhibition is half-maximal. Low values mean higher potency, high ones lower potency. Consider `COCCN1CCN(Cc2ccc(-c3[nH]nc4c3C(=O)c3c(NC(=O)NN5CCOCC5)cccc3-4)cc2)CC1`, for which the IC50 is less than 10 nM. In turn, `O=C(Nc1cccc2c1C(=O)c1c-2n[nH]c1-c1ccc(OCCN2CCOCC2)cc1)NN1CCOCC1` gave a concentration for half-maximal inhibition (IC50) of less than 100 nM. Take `O=C(Nc1cccc2c1C(=O)c1c-2n[nH]c1-c1ccc(S(=O)(=O)N2CCNCC2)cc1)NN1CCOCC1`: the half-maximal inhibitory concentration (IC50) was less than 100 nM.

The molecule `CCN(CCO)S(=O)(=O)c1cc(Cl)c(-n2nc(C(C)C)c3c(=O)[nH]c(Cc4ccc(OCCN5CCOCC5)cc4)nc32)c(Cl)c1` had an IC50 of less than 100 nM.

In turn, `Cc1cc(OCCCN2CCN(C(C)C)CC2)ccc1-c1[nH]nc2c1C(=O)c1c(NC(=O)NN3CCOCC3)cccc1-2` gave an IC50 of less than 10 nM. As for `CC(C)N1CCN(NC(=O)Nc2cccc3c2C(=O)c2c-3n[nH]c2-c2ccc(OCCN3CCCC3)cc2)CC1`, the half-inhibitory concentration (IC50) is less than 10 nM. `Cc1cc(-c2[nH]nc3c2C(=O)c2c(NC(=O)NN4CCN(C)CC4)cccc2-3)ccc1OCCN1CCCC1`: the IC50 is less than 100 nM. With `CN1CCN(NC(=O)Nc2cccc3c2C(=O)c2c-3n[nH]c2-c2ccc(OCCn3cccn3)cc2)CC1` the figure was less than 100 nM; with `CN1CCN(NC(=O)Nc2cccc3c2C(=O)c2c-3n[nH]c2-c2ccc(OCCN(CCO)CCO)cc2)CC1`, less than 100 nM.

The molecule `CC(C)c1nn(-c2c(Cl)cccc2Cl)c2nc(Cc3ccc(OCCOC(=O)[C@@H](N)C(C)C)cc3)[nH]c(=O)c12` showed an IC50 of less than 100 nM. With `Cc1cc(-c2[nH]nc3c2C(=O)c2c(NC(=O)NN4CCOCC4)cccc2-3)ccc1OCCN1CCN(C(C)C)CC1` the figure was less than 10 nM; with `O=C(Nc1cccc2c1C(=O)c1c(-c3ccc(CN4CCCC4)cc3)n[nH]c1-2)NN1CCOCC1`, less than 100 nM.

The molecule `CC(C)c1nn(-c2c(Cl)cc(Cl)cc2Cl)c2nc(Cc3ccc(CN4CCN(C(C)C)CC4)n3C)[nH]c(=O)c12` showed a concentration for half-maximal inhibition (IC50) of less than 100 nM. For the molecule `COc1cc(-c2[nH]nc3c2C(=O)c2c(NC(=O)NN4CCOCC4)cccc2-3)ccc1OCCN1CCCC1`, the IC50 is less than 100 nM.

Turning to `Cc1cc(OCCN2CCCN(C)CC2)ccc1-c1[nH]nc2c1C(=O)c1c(NC(=O)NN3CCN(C)CC3)cccc1-2`, the IC50 was less than 100 nM. Turning to `O=C(Nc1cccc2c1C(=O)c1c(-c3ccc(CNCCOCCO)cc3)n[nH]c1-2)NN1CCOCC1`, the half-maximal inhibitory concentration (IC50) is less than 100 nM.

For `CN1CCN(CCOc2ccc(-c3n[nH]c4c3C(=O)c3c(NC(=O)NN5CCN(C)CC5)cccc3-4)c(F)c2)CC1`, the IC50 was less than 100 nM. `O=C(Nc1cccc2c1C(=O)c1c(-c3ccc(OCCN4CCOCC4)cc3Cl)n[nH]c1-2)NN1CCOCC1` registered a half-inhibitory concentration (IC50) of less than 100 nM. On to `CC(C)N1CCN(CCOc2ccc(-c3n[nH]c4c3C(=O)c3c(NC(=O)NN5CCOCC5)cccc3-4)c(F)c2)CC1`, for which the half-maximal inhibitory concentration (IC50) is less than 100 nM. For `CC(C)c1nn(-c2c(Cl)cc(Cl)cc2Cl)c2nc(Cc3ccc(NS(=O)(=O)CCCN4CCN(C(C)C)CC4)cc3)[nH]c(=O)c12`, the IC50 was less than 100 nM. `CC(C)N1CCN(S(=O)(=O)c2ccc(-c3[nH]nc4c3C(=O)c3c(NC(=O)NN5CCOCC5)cccc3-4)cc2)CC1` gave an IC50 of less than 10 nM. With `Cc1noc(COc2ccc(-c3[nH]nc4c3C(=O)c3c(NC(=O)NN5CCN(C)CC5)cccc3-4)cc2)n1` the figure was less than 100 nM; with `CC(C)c1nn(-c2c(Cl)cccc2Cl)c2nc(Cc3ccc(C(=O)NOCCN4CCOCC4)cc3)[nH]c(=O)c12`, less than 100 nM; with `CC(C)c1nn(-c2c(Cl)cccc2Cl)c2nc(Cc3ccc(OCCN4CCOCC4)c(O)c3)[nH]c(=O)c12`, less than 100 nM. In turn, `Cc1noc(COc2ccc(-c3[nH]nc4c3C(=O)c3c(NC(=O)NN5CCOCC5)cccc3-4)cc2)n1` returned an IC50 of less than 100 nM.

In the case of `CC(C)c1nn(-c2c(Cl)cccc2Cl)c2nc(Cc3ccc(CN4CCCC4)c(O)c3)[nH]c(=O)c12`, the IC50 is less than 100 nM.

`CCOC(=O)COc1ccc(-c2[nH]nc3c2C(=O)c2c(NC(=O)NN4CCOCC4)cccc2-3)cc1` registered an IC50 of less than 100 nM.

The molecule `O=C(Nc1cccc2c1C(=O)c1c-2n[nH]c1-c1ccc(OCC(=O)N2CCOCC2)cc1)NN1CCOCC1` displayed an IC50 of less than 100 nM. Take `CCOC(=O)CN1CCN(NC(=O)Nc2cccc3c2C(=O)c2c-3n[nH]c2-c2ccc(OCCN3CCCC3)cc2)CC1`: the concentration for half-maximal inhibition (IC50) was less than 100 nM. With `O=C(Nc1cccc2c1C(=O)c1c-2n[nH]c1-c1ccc(OP(=O)(O)O)cc1)NN1CCOCC1` the figure was less than 100 nM. The molecule `Cc1cc(OCCN2CCCCC2)ccc1-c1[nH]nc2c1C(=O)c1c(NC(=O)NN3CCN(C)CC3)cccc1-2` showed an IC50 of less than 100 nM. `CC(C)N1CCN(C(=O)COc2ccc(-c3n[nH]c4c3C(=O)c3c(NC(=O)NN5CCOCC5)cccc3-4)cc2)CC1` yielded an IC50 of less than 100 nM. With `CC(C)c1nn(-c2c(Cl)cccc2Cl)c2nc(Cc3ccc(OCCN4CCOCC4)cc3)[nH]c(=O)c12` the figure was less than 10 nM. `O=C(Nc1cccc2c1C(=O)c1c(-c3ccc(CNC(CO)CO)cc3)n[nH]c1-2)NN1CCOCC1` gave an IC50 of less than 10 nM. With `CCN1CCN(S(=O)(=O)c2cc(Cl)c(-n3nc(C(C)C)c4c(=O)[nH]c(Cc5ccc(OCCN6CCOCC6)cc5)nc43)c(Cl)c2)CC1` the figure was less than 1000 nM; with `CC(C)c1nn(-c2c(Cl)cccc2Cl)c2nc(Cc3ccc(NS(=O)(=O)CCCN4CCOCC4)cc3)[nH]c(=O)c12`, less than 100 nM; with `CN1CCN(NC(=O)Nc2cccc3c2C(=O)c2c-3n[nH]c2-c2ccc(OCCN3CCC[C@H]3CO)cc2)CC1`, less than 100 nM. The molecule `CC(C)N1CCN(CCOc2ccc(-c3n[nH]c4c3C(=O)c3c(NC(=O)NN5CCOCC5)cccc3-4)cc2F)CC1` gave an IC50 of less than 10 nM.

For the molecule `Cc1nc(Cc2nc3c(c(C(C)C)nn3-c3c(Cl)cccc3Cl)c(=O)[nH]2)cs1`, the IC50 is less than 10 nM.

For `CC(C)c1nn(-c2c(Cl)cccc2Cl)c2nc(Cc3ccc(OCCO)cc3)[nH]c(=O)c12`, the half-inhibitory concentration (IC50) was less than 100 nM.

On to `O=C(Nc1cccc2c1C(=O)c1c(-c3ccc(OCc4nnn[nH]4)cc3)n[nH]c1-2)NN1CCOCC1`, for which the IC50 was less than 100 nM. With `O=C(Nc1cccc2c1C(=O)c1c(-c3ccc(CN4CCC[C@H]4CO)cc3)n[nH]c1-2)NN1CCOCC1` the figure was less than 100 nM.

Take `Cc1cc(OCCN2CCCC2)ccc1-c1[nH]nc2c1C(=O)c1c(NC(=O)NN3CCN(C)CC3)cccc1-2`: the 50% inhibitory concentration (IC50) was less than 100 nM. The molecule `CN1CCN(NC(=O)Nc2cccc3c2C(=O)c2c(-c4ccc(OCCN5CCCC5)cc4F)n[nH]c2-3)CC1` returned an IC50 of less than 100 nM. In the case of `Cc1cc(-c2[nH]nc3c2C(=O)c2c(NC(=O)NN4CCN(C)CC4)cccc2-3)ccc1OCCN1CCN(C(C)C)CC1`, the 50% inhibitory concentration (IC50) is less than 100 nM. `CC(C)c1nn(-c2c(Cl)cc(Cl)cc2Cl)c2nc(Cc3ccc(OCC(C)(C)O)cc3)[nH]c(=O)c12` gave an IC50 of less than 100 nM. In the case of `O=C(Nc1cccc2c1C(=O)c1c-2n[nH]c1-c1ccc(O)c(CN2CCOCC2)c1)NN1CCOCC1`, the concentration for half-maximal inhibition (IC50) was less than 100 nM. The molecule `O=C(Nc1cccc2c1C(=O)c1c(-c3ccc(CN4CCOCC4)cc3)n[nH]c1-2)NN1CCOCC1` gave a half-maximal inhibitory concentration (IC50) of less than 100 nM. `CC(C)c1nn(-c2c(Cl)cccc2Cl)c2nc(Cc3ccc(O)cc3)[nH]c(=O)c12`: the IC50 is less than 10 nM. For `COCCOc1ccc(Cc2nc3c(c(C(C)C)nn3-c3c(Cl)cccc3Cl)c(=O)[nH]2)cc1`, the IC50 was less than 100 nM. In turn, `Cc1cc(-c2[nH]nc3c2C(=O)c2c(NC(=O)NN4CCOCC4)cccc2-3)ccc1OCCN1CCCC1` had a half-inhibitory concentration (IC50) of less than 100 nM.

In the case of `O=C(Nc1cccc2c1C(=O)c1c(-c3ccc(CN4CCC(O)CC4)cc3)n[nH]c1-2)NN1CCOCC1`, the IC50 is less than 100 nM. With `CC(C)c1nn(-c2c(Cl)cc(Cl)cc2Cl)c2nc(Cc3ccc(OCCO)cc3)[nH]c(=O)c12`, the IC50 was less than 100 nM. `O=C(Nc1cccc2c1C(=O)c1c(-c3ccc(OCCN4CCOCC4)c(F)c3)n[nH]c1-2)NN1CCOCC1` came in with an IC50 of less than 100 nM. `O=C(Nc1cccc2c1C(=O)c1c(-c3ccc(CN4CCN(CCO)CC4)cc3)n[nH]c1-2)NN1CCOCC1` yielded a half-maximal inhibitory concentration (IC50) of less than 100 nM. For `CC(C)N1CCN(C(=O)COc2ccc(-c3[nH]nc4c3C(=O)c3c(NC(=O)NN5CCOCC5)cccc3-4)cc2)CC1`, the half-inhibitory concentration (IC50) was less than 100 nM. The molecule `CN(C)C(=O)CN1CCN(NC(=O)Nc2cccc3c2C(=O)c2c-3n[nH]c2-c2ccc(OCCN3CCCC3)cc2)CC1` showed an IC50 of less than 100 nM. Take `O=C(Nc1cccc2c1C(=O)c1c(-c3ccc(CN4CCN(c5ccccn5)CC4)cc3)n[nH]c1-2)NN1CCOCC1`: the 50% inhibitory concentration (IC50) was less than 100 nM. With `CC(C)c1nn(-c2c(Cl)cc(Cl)cc2Cl)c2nc(Cc3ccc(NS(=O)(=O)CCCN4CCCCC4)cc3)[nH]c(=O)c12` the figure was less than 100 nM; with `O=C(O)COc1ccc(-c2n[nH]c3c2C(=O)c2c(NC(=O)NN4CCOCC4)cccc2-3)cc1`, less than 10 nM; with `Cc1cc(OCCN2CCCC2)ccc1-c1[nH]nc2c1C(=O)c1c(NC(=O)NN3CCOCC3)cccc1-2`, less than 10 nM.

In turn, `CC(C)c1nn(-c2c(Cl)cc(Cl)cc2Cl)c2nc(Cc3ccc(OCCN4CCN(C(C)C)CC4)cc3)[nH]c(=O)c12` came in with a concentration for half-maximal inhibition (IC50) of less than 10 nM.

For the molecule `Cc1cc(OCCn2cccn2)ccc1-c1[nH]nc2c1C(=O)c1c(NC(=O)NN3CCN(C)CC3)cccc1-2`, the IC50 was less than 100 nM. `CC(C)c1nn(-c2c(Cl)cc(Cl)cc2Cl)c2nc(Cc3ccc(CNC(CO)CO)n3C)[nH]c(=O)c12` returned an IC50 of less than 10 nM. Regarding `CN1CCN(NC(=O)Nc2cccc3c2C(=O)c2c(-c4ccc(OCCN5CCCC5)c(F)c4)n[nH]c2-3)CC1`, the IC50 is less than 100 nM. With `O=C(Nc1cccc2c1C(=O)c1c(-c3ccc(CN4CCN(c5cccc(C(F)(F)F)c5)CC4)cc3)n[nH]c1-2)NN1CCOCC1` the figure was less than 100 nM; with `O=C(Nc1cccc2c1C(=O)c1c-2n[nH]c1-c1ccc(OCC(=O)N2CCCC2)cc1)NN1CCOCC1`, less than 100 nM.

`COc1ccc(Cc2nc3c(c(C(C)C)nn3-c3c(Cl)cccc3Cl)c(=O)[nH]2)cc1` gave a concentration for half-maximal inhibition (IC50) of less than 10 nM.

In the case of `CC(C)C(N)C(=O)OCCN1CCN(NC(=O)Nc2cccc3c2C(=O)c2c-3n[nH]c2-c2ccc(OCCN3CCCC3)cc2)CC1` (configuration not stated), the IC50 is less than 100 nM.

As to `Cc1cc(OCCN2CCOCC2)ccc1-c1[nH]nc2c1C(=O)c1c(NC(=O)NN3CCN(C)CC3)cccc1-2`, the half-maximal inhibitory concentration (IC50) was less than 100 nM. As for `Cc1cc(OCCN2CCN(C(C)C)CC2)ccc1-c1[nH]nc2c1C(=O)c1c(NC(=O)NN3CCN(C)CC3)cccc1-2`, the IC50 is less than 100 nM. The molecule `CC(C)c1nn(-c2c(Cl)cccc2Cl)c2nc(Cc3ccc(O)c(CN4CCOCC4)c3)[nH]c(=O)c12` had a concentration for half-maximal inhibition (IC50) of less than 100 nM.

These data come from the Kinase Knowledgebase extract (Sharma et al. 2016).
